Assay results: patent US20020058637A1, “Methods of inhibiting tau-protein kinase I activity, inhibiting neuronal cell death and treating alzheimer's disease and tau-protein kinase I” (priority 1993, published 2002)
“Also recorded” adds a separate entry of the source.

Legend:
[1] = system: tau-protein; experiment: Phosphorylation of tau-protein by recombinant human TPK-I expressed in E. coli (phosphorylating method I); assay type: biochemical, bovine; settings: room temperature, 20 hours
Method: tau-Protein extracted from bovine brain followed by purification (2 microliters; 1.5 mg/ml concentration) and 1 microliters of the above partially-purified enzyme solution were mixed. To the mixture was added a solution containing 2 mM adenosinetriphosphate and 2 mM magnesium acetate and [gamma-32P]adenosinetriphosphate so that the phosphorylation of tau-protein was conducted at room temperature for 20 hours whereby the amount of phosphoric acid incorporated in tau-protein was evaluated.

[2] = system: hippocampus cells; experiment: Inhibiting action for the death of cranial nerve cells by AβP (living cell count, phase contrast microscope); assay type: cell-based, rat; settings: for Numbers of Living Cells (%) After 6 hours / Numbers of Living Cells (%) After 21 hours: rat hippocampus cell culture, AβP 20 micromoles, oligonucleotide 1 micromole per 1 ml medium, 37° C., percentage to control
Excerpt: Numbers of many normal and healthy cells were counted by a phase contrast microscope as an index of the living cells after the treatment. Normal cells mean those which have morphologically flat circumference and many nerve cell projections while the degenerated cells were judged by checking the irregular shape, degeneration of the neural projections, etc. Numbers of the living cells were counted in a well. In the standard culture liquid, the cell numbers were not less than 400 per well. The result was confirmed by an immunohistochemical means.
The primary culture medium of hippocampus of rats was prepared in accordance with a method described in Brain Res., 126, 397-425 (1977). Thus, the hippocampus tissues were collected from embryo of the rats of 18 days after fertilization and digested in papain (protease) (10 U/ml) at 37° C. for 20 minutes. The resulting cells were added to a Dulbecco's modified Eagle's medium supplied with 5% bovine fetus serum, 5% horse serum, 10 micrograms/ml insulin, 0.1 mg/ml transferrin, 1 microgram/ml aprotinin, 1 mM sodium pyruvate and 84 micrograms/ml gentamycin. This was planted to a well for tissue culture covered with poly-L-lysine at the density of 2×10^5 cells/cm^2, cultured for three days and treated with 1 micromole of cytosine-beta-arabinofuranoside for 24 hours and the cells of the fifth day of the culture were used.
The culture medium of the hippocampus prepared by the above-mentioned method was subjected to the following treatments (b) to (d), numbers of the living cells with an elapse of time were counted and the result is given in Table
(a) Nontreated culture medium (control):
(b) TPKI-antisense (1 micromole) was added to 1 ml of the cell culture medium and, after five minutes, 20 micromoles of AβP was added followed by keeping at 37° C. for 24 hours.
(c) AβP (20 micromoles) was added to 1 ml of the cell cuture medium followed by keeping at 37° C. for 24 hours.
(d) TPKI-sense (1 micromole) was added to 1 ml of the cell culture medium and, after five minutes, 20 micromoles of AμP was added followed by keeping at 37° C. for 24 hours.

[3] = system: TPK-I; experiment: Phosphorylation of tau-protein by extract of treated hippocampus cells (phosphorylating activity of TPK-I); assay type: cell-based, rat; settings: 24 hours
Method: Hippocampus cells were collected from the culture medium by washing with an ice-cooled phosphate buffer for three times. The cells were suspended in a buffer A (pH: 6.8) which contained 1 mM EGTA, 0.5 mM magnesium acetate and 20 mM 2-(N-morpholino)-ethanesulfonic acid containing a phosphatase inhibitor ([…]; manufactured by Seikagaku Kogyo) and a protease inhibitor (1 mM phenylmethylsulfonyl fluoride and each 1 micro gram/ml of leupeptin, pepstatin and aprotinin), homogenized and centrifuged at 14,000 rpm for one hour and the supernatant liquid was used for checking the phosphorylation.
The rat tau-protein expressed in E. coli BL21 by a gene recombination was purified by a method described in J. Biol. Chem., 267, 10897-10901 (1992).
The hippocampus extract (1 microliter) was added to a solution of the rat tau-protein (400 micrograms/ml) dissolved in a buffer A containing 1 mM [τ-^32P]ATP (10-20 Ci/mmole) and then 10 micromoles of okadaic acid was added to make the final volume 10 microliters. This was incubated at 37° C. for three hours and the reaction was stopped by adding a buffer for electrophoresis. After subjecting to a 10% polyacrylamide gel electrophoresis, the ^32p in the tau-protein was observed by a laser image analyzer (Fuji BAS 2000).

Row | Substance | phosphoric acid incorporated into one molecule of tau-protein [1] | cytotoxity by AβP observed with phase contrast microscope ([2]; TPKI-antisense and AβP on hippocampus cells, after 24 hours, magnifying power 400) | Numbers of Living Cells (%) After 6 hours [2] | Numbers of Living Cells (%) After 21 hours [2] | phosphorylating activity of TPK-I relative to the case in which only AβP was acted ([3]; TPKI-antisense and AβP versus only AβP) | Phosphorylating Activity of TPKI ([3]; hippocampus cell supernatant, AβP 20 micromoles, TPKI-antisense 1 micromole, rat tau-protein substrate)
1 | partially-purified TPK-I: recombinant human-originated tau-protein kinase I (Seq. ID No. 1) expressed in E. coli BL21 (DE3), partially purified | 1.2 mol | – | – | – | – | –
2 | 5′-TCTCGGTCGCCCCGACAT-3′ (listed as DNA, chemistry not given here) [TPKI-Antisense, tested together with AβP] | – | little being similar to the controls; also recorded: little and similar to the case of the control | 83.0% | 72.6% | about one half; also recorded: about one-half | 31.6 unit/mg protein
3 | 5′-ATGTCGGGGCGACCGAGA-3′ (listed as DNA, chemistry not given here) [TPKI-Sense, tested together with AβP, reference compound] | – | – | 49.5% | 17.1% | – | –
